From patent US20140309296A1, “BUDIODARONE FORMULATIONS” (Armetheon, Inc., priority 2013, published 2014)
Where “and” joins values, the source holds several entries; their conditions need not be identical. Equal entries are not always repeated. Where two headings read alike, the source gives them in different places.

Experiments:
[1] = tested on: patients with paroxysmal atrial fibrillation (PAF); settings: cited from earlier work
[2] = tested on: subjects with paroxysmal atrial fibrillation who had implanted pacemakers; settings: cited from earlier work
[3] = pre-clinical safety testing; cited from earlier work
[4] = cited from earlier work; for tolerability: oral, up to 600 mg BID
[5] = Solubility of budiodarone tartrate and benzyl alcohol in solvents of different ionic strengths (Example 4); assay type: physicochemical; settings: 5/1 benzyl alcohol, nominal 25 mg/ml, 1 hour
Experimental: To find out, five vials, each one containing budiodarone tartrate (200 mg, 0.234 mmoles) and benzyl alcohol (122 μl, 1.173 mmoles) were prepared. The molar ratio was therefore 5/1. To each of these vials was added 4 ml of water and the vials were vortexed, resulting in clear solutions containing 50 mg/ml of budiodarone tartrate and benzyl alcohol (molar ratio of 5/1). Then, 4 ml of one of the following solvents was added: 30 mM acetate buffer pH 5.2, 30 mM phosphate buffer saline pH 7.4, 30 mM Tris.HCl buffer pH 7.5, 1.8% sodium chloride (saline solution), and 10% dextrose solution (D10W) resulting in 15 mM concentration of buffer, 0.9% concentration of sodium chloride, and 5% concentration of dextrose (D5W), respectively.
Upon addition of an ionic solvent, all the samples except the D5W sample became turbid. The vials were then vortexed at high speed (3×10 sec) and left to stand for 1 hour. Then they were vortexed again (3×10 sec) and a 1-ml aliquot from each vial was centrifuged at 13,000 rpm for 10 min. A small aliquot of the clear supernatant was diluted 25-fold with methanol and analyzed by HPLC (Conditions 3). The remaining concentrations of budiodarone in the samples were as follows: […]

[6] = Solubility of budiodarone tartrate in water containing various amounts of benzyl alcohol (Example 3); assay type: physicochemical
Experimental: Three series of samples were prepared. […] The vials were then capped and the mixtures were vortexed on a VWR Genie 2 vortexer at maximum speed for 3×10 sec duration. The final concentrations of budiodarone were 25 mg/ml, 50 mg/ml, and 100 mg/ml in water containing benzyl alcohol from 0.5% to 11% v/v. The vials were kept in the dark for 24 hours and analyzed by HPLC as per Example 1 Conditions 1.
The results are shown in FIG. 1, where the amount of budiodarone in solution is plotted as a function of the benzyl alcohol concentration. […] For example, at 25 mg/ml, budiodarone is soluble in approximately 1.5% to 4.5% v/v of benzyl alcohol. At 50 mg/ml, budiodarone is soluble in approximately 3% to 6% benzyl alcohol. At 100 mg/ml, budiodarone is soluble in approximately 4% to 8% benzyl alcohol.

[7] = Lower-limit ratio for soluble benzyl alcohol and budiodarone compositions in water (Example 6); assay type: physicochemical; settings: 25, 50 and 100 mg/ml, introduced ratios 0.8 to 4.9, 24 hours in the dark, room temperature
Experimental: Three series of 20-ml screw-cap glass vials were prepared as described in Tables 5 to 7. Budiodarone tartrate was added to the empty vials, followed by water, and then benzyl alcohol was added. The vials were capped and the mixtures were vortexed for three times 10 seconds. The vials were then left in the dark for 24 hours and were then analyzed as described above using HPLC Conditions 2 and 3.
In FIG. 4, the approximately 5/1 lower-limit molar ratio is constant over a wide range of budiodarone concentrations, at least between budiodarone concentrations of 25 mg/ml and 100 mg/ml. The resulting ratios in solution, following 24-hour in the dark, were calculated from HPLC analysis data and were plotted versus the actual ratios introduced into the vials. Each point represents the mean findings of the three concentrations (25 mg/ml, 50 mg/ml, and 100 mg/ml)+/−standard deviation. […] This association takes place even when the original ratio introduced into the vial is as low as 0.8/1. Presumably the 5/1 ratio is an optimum molar ratio allowing for the optimum balance of repulsive ionic forces and attractive van der Waals forces between water molecules and the budiodarone/benzyl alcohol complex. […]

[8] = 600 mg BID, Treatment Months 1-3, ITT
[9] = 600 mg BID, Treatment Months 1-3, mITT

CC[C@H](C)OC(=O)Cc1oc2ccccc2c1C(=O)c1cc(I)c(OCCN(CC)CC)c(I)c1 [budiodarone, (1S)-1-methylpropyl 2-(3-{4-[2-(diethylamino)ethoxy]-3,5-diiodobenzoyl}benzofuran-2-yl)acetate]
decrease in AFB ([1]; 200 mg BID, mITT population, not statistically significant): 10% | median percent reduction from baseline in AT/AF burden ([1]; 400 mg BID, Treatment Months 1-3, ITT population): 54% | median percent reduction from baseline in AT/AF burden ([1]; 400 mg BID, Treatment Months 1-3, mITT population): 54% | median percent reduction in AT/AF burden ([1]; 600 mg BID, Treatment Month 3, ITT population, listed as ATI-2042): 80% and 83% | median percent reduction in AT/AF burden ([1]; 600 mg BID, Treatment Month 3, mITT population): 83% | median percent reduction from baseline in AT/AF burden ([1]; 600 mg BID, Treatment Months 1-3, ITT population): 74% | median percent change from baseline in duration of AT/AF episodes [1, 8]: −51.3% | median percent change from baseline in the number of AT/AF episodes [1, 8]: −52.9% | median percent increase in the duration of NSR [1, 8]: 208.8% | median percent reduction from baseline in AT/AF burden ([1]; 600 mg BID, Treatment Months 1-3, mITT population): 75% | median percent change from baseline in duration of AT/AF episodes [1, 9]: −51.3% | median percent change from baseline in the number of AT/AF episodes [1, 9]: −62.1% | median percent increase in the duration of NSR [1, 9]: 241.8% | decrease in number of AT/AF episodes (median percent change from baseline, FIG. 12) ([1]; 600 mg BID, all three treatment months): more than 60% | decrease in duration of episodes (FIG. 12) ([1]; 600 mg BID, treatment month 1): more than 50% | decrease in duration of episodes (FIG. 12) ([1]; 600 mg BID, treatment month 2): more than 70% | decrease in duration of episodes (FIG. 12) ([1]; 600 mg BID, treatment month 3): ~70% | mean episode duration (FIG. 13) ([1]; 600 mg, down from nearly 24): less than 1 hour | median AF episode duration ([1]; 600 mg, month 3): 0 | reduction of number and duration of AF episodes below baseline (FIG. 12) ([1]; 600 mg): about 70% | patients a lot or completely satisfied with the test medication (Patient GCI Scale) ([1]; ITT population, dose group not stated): 60.0% | patients reporting a lot of improvement or complete relief (Patient GCI Scale) ([1]; dose group not stated): 46.7% | AFB after washout ([1]; each of the three dose groups, one-month washout period): returned to essentially the baseline values | mean AFB (SD) ([2]; 200 mg bid): 5.2 ± 4.2% | mean AFB (SD) ([2]; 400 mg bid): 5.2+5.2% | mean AFB (SD) ([2]; 600 mg bid): 2.8+3.4% | mean AFB (SD) ([2]; 800 mg bid): 1.5 ± 0.5% | decrease in AFB ([2]; at all doses (200 to 800 mg bid)): at least 70% | Mean episode duration (SD) ([2]; p2 (200 mg bid)): 1.7+2.5 h | relative reduction (RR) in AFB from baseline ([2]; p2 (200 mg bid)): 71.2 ± 31.3% | Mean episode duration (SD) ([2]; p3 (400 mg bid)): 0.6+0.7 h | relative reduction (RR) in AFB from baseline ([2]; p3 (400 mg bid)): 71.7 ± 20.6% | Mean episode duration (SD) ([2]; p4 (600 mg bid)): 0.1+0.2 h | relative reduction (RR) in AFB from baseline ([2]; p4 (600 mg bid)): 79.9 ± 26.4% | Mean episode duration (SD) ([2]; p5 (800 mg bid)): 0.5+0.7 h | relative reduction (RR) in AFB from baseline ([2]; p5 (800 mg bid)): 86.8 ± 9.8% | number of AF episodes ([2]; treatment periods and washout): increased initially | Mean episode duration (SD) ([2]; washout): 2.4+3.0 h | mean AFB (SD) ([2]; washout): 11.7+14.0% | findings in canine testes [3]: Non-specific but potentially toxic findings | creatinine ([4]; BUN unchanged): reversible elevation | ALT ([4]; appeared to be dose related): mild, reversible increase | tolerability [4]: safe and well tolerated | tolerability ([4]; listed as ATI-2042): well tolerated | tissue accumulation ([4]; slit lamp examination at the end of the treatment period): no evidence of budiodarone tissue accumulation | corneal deposits ([4]; slit-lamp examinations): No patient treated with ATI-2042 developed corneal deposits | remaining concentration of budiodarone ([5]; 0.9% saline solution): < 1 mg/mL | remaining concentration of budiodarone ([5]; Acetate buffer pH5.2 (15 mM)): < 1 mg/mL | remaining concentration of budiodarone ([5]; D5W): 26.6 mg/mL | remaining concentration of budiodarone ([5]; Phosphate buffer saline pH 7.4 (15 mM)): < 1 mg/mL | remaining concentration of budiodarone ([5]; Tris.HCl buffer pH7.5 (15 mM)): < 1 mg/mL | molar ratio above which budiodarone was not fully soluble in water (phase separation) [6]: approximately 11/1 | lower limit of the molar ratio of benzyl alcohol to budiodarone that forms in solution ([6]; 25-100 mg/ml): approximately 5/1 | lower-limit molar ratio of benzyl alcohol to budiodarone in solution [7]: approximately 5/1
